Where two headings read alike, the source gives them in different places.
Assays:
adenosine = assay: In vivo effect on adenosine levels in rat tissues (HPLC of tissue adenosine)
Procedure: Folinic acid (50 mg/kg) was administered intraperitoneally once daily for fourteen days. […] Hearts were removed from animals and flash frozen in liquid nitrogen with 10 s of death. Liver and lungs were removed en bloc and flash frozen with 30 s of death. Brain tissue was subsequently dissected.

HT-29 SF cells [1] = assay: Reversal of DHEA effect on cell cycle (flow cytometry); type: cell-based, human; conditions: 25 μM DHEA, 48 hours
HT-29 SF cells [2] = assay: Reversal of DHEA-mediated growth inhibition; type: cell-based, human; conditions: 25 μM DHEA, supplement in medium, 48 hours
HT-29 SF cells [3] = assay: DHEA effect on cell cycle (flow cytometry); type: cell-based, human
Procedure: Cells were plated at 10^5/60-mm dish in duplicate. […] Cultures were trypsinized following 0, 24, 48, or 74 hours and fixed and stained using a modification of a procedure of Bauer et al., Cancer Res. 46, 3173-3178 (1986). Briefly, cells were collected by centrifugation and resuspended in cold phosphate-buffered saline. Cells were fixed in 70% ethanol, washed, and resuspended in phosphate-buffered saline.
After 24, 48, and 72 hours, cells were harvested, fixed in ethanol, and stained with propidium iodide, and the DNA content/cell was determined by flow cytometric analysis. The percentage of cells in G1, S, and G2M phases was calculated using the Cellfit cell cycle analysis program. S phase is marked by a quadrangle for clarity. Representative histograms from duplicate determinations are shown. The experiment was repeated three times.

Solubility of DHEA-S = type: physicochemical; conditions: for Solubility: range of triplicates
Source text: Inhalation of pure water can produce a cough stimulus. […] The temperature effect is weaker at high NaCl concentrations.

HT-29 SF cells [4] = assay: DHEA effect on cell growth (Coulter counter); type: cell-based, human; conditions: 12.5-200 μM, 24-72 hours
[5] = Physicochemical testing of DHEA-S dihydrate before and after micronization; conditions: for Water (% w/w): Karl Fischer
Procedure: Surface area is determined using five point BET analyses are performed with nitrogen as the adsorbing gas (P/Po=0.05 to 0.30) using a Micromeritics TriStar surface area analyzer. Particle size distributions are measured by laser diffraction using a Micromeritics Saturn Digisizer where the particles are suspended in mineral oil with sodium dioctyl sodium sulfosuccinate as a dispersing agent. Drug substance water content is measured by Karl Fischer titration (Schott Titroline KF). Pure water is used as the standard and all relative standard deviations for triplicates are less than 1%. Powder is added directly to the titration media.

[6] = Solid-state stability with and without lactose at 50° C. (HPLC, DHEA formation); type: physicochemical
Source text: These conditions were used to stress the formulation in order to predict its long-term stability results. […] The primary degradant is DHEA. […] The materials on accelerated storage become more cohesive with time as evidenced by clumping during sample weighing for chemical analysis. […] This is a considerable disadvantage since lactose is the most commonly used inhalation excipient for dry powder formulations. Continuing with the virtually anhydrous form would mean limiting formulations to neat powder or undertaking more comprehensive safety studies to use a novel excipient.

[7] = Aerosolization of neat DHEA-S dihydrate, Acu-Breathe single-dose inhaler, fine particle fraction; type: physicochemical; conditions: neat powder, Acu-Breathe, 30 to 75 L/min, all flow rates
Source text: The single-dose Acu-Breathe device is used for evaluating DHEA-S.dihydrate. […] These blisters are actuated into the Andersen 8-stage cascade impactor at flow rates ranging from 30 to 75 L/min with a glass twin-impinger throat. Stages 1-5 of the Andersen impactor are rinsed together to obtain an estimate of the fine particle fraction. Pooling the drug collected from multiple stages into one assay make the method much more sensitive. […] Using a carrier with a larger particle size typically improves the aerosol properties of micronized drug substances.

[8] = Short-term solution stability of DHEA-S nebulizer formulation; type: physicochemical; conditions: for Appearance of solution on storage: 10 mg/mL in 0.12% NaCl
Procedure: Aliquots of this solution are filled into clear glass vials and stored at RT (24-26° C.) and at 40° C. The samples are checked daily for DHEA-S content, DHEA content, and appearance. For each time point, duplicate samples are withdrawn and diluted from each vial. […] The study is stopped on day three. […] The solution should easily be stable for the day of reconstitution in a clinical trial. The following section describes the aerosol properties of this formulation.

[9] = HPLC analysis of drug degradation during jet milling; type: physicochemical; conditions: HPLC peak area vs unmilled standard
Procedure: Two vials (A; single-pass; 150 mg) and (B double-pass; 600 mg) of the micronized drug were available for determining drug degradation during jet milling micronization. […] The chromatographic peak area for the HPLC assay of the unmilled drug standard solution (10 mg/ml) gave a value of 23,427. […] The chromatographic peak areas for vials A and B were 11,979 and 11,677, respectively.

asthma = conditions: 657 patients with asthma, cited from earlier work
[10] = Folinic Acid 50 mg/kg intraperitoneally once daily 14 days, mean±SEM

Nc1nc(=O)c2c([nH]1)NCC(CNc1ccc(C(=O)N[C@@H](CCC(=O)O)C(=O)O)cc1)N2C=O (mixture of isomers) [Folinic Acid, Folinic acid]
Intracellular adenosine, Brain (adenosine; [10]): 0.72 ± 0.09 nmols/mg protein | Intracellular adenosine, Heart (adenosine; [10]): 12.4 ± 2.1 nmols/mg protein | Intracellular adenosine, Liver (adenosine; [10]): 16.4 ± 2.4 nmols/mg protein | Effect on adenosine levels when administered alone (adenosine; all organs studied): increase in adenosine levels | Effect of coadministration on steroid-mediated adenosine depletion (adenosine; coadministered with DHEA or methyltestosterone): completely abrogated

CC(C)CCC[C@@H](C)[C@H]1CC[C@H]2[C@@H]3CC=C4C[C@@H](O)CC[C@]4(C)[C@H]3CC[C@]12C [CH, cholesterol]
Prevention of DHEA-induced S phase depletion (HT-29 SF cells [1]): very little effect | Reversal of DHEA-induced growth inhibition (HT-29 SF cells [2]): no such effect

C[C@]12CC[C@H](O)CC1=CC[C@@H]1[C@@H]2CC[C@]2(C)C(=O)CC[C@@H]12 [DHEA, 3β-hydroxyandrost-5-en-17-one]
Percentage of cells in G1 / S phase (HT-29 SF cells [3]; 200 μM, after 24 hours): more rapid increase in the percentage of cells in G1 and a decreased proportion of cells in S phase | G2M phase cells (HT-29 SF cells [3]; 25 or 50 μM, after 48 hours): transient increase | Percentage of cells in G1 phase (HT-29 SF cells [3]; 25 or 50 μM, after 72 hours): increased | Cell cycle distribution (HT-29 SF cells [3]; 25 or 50 μM, after the initial 24 hours): unchanged | Overall effect on cell cycle (HT-29 SF cells [3]; time- and dose-dependent): G1 block | Solubility in water (Solubility of DHEA-S; water): insoluble in water | Effect on growth of HT-29 cells (HT-29 SF cells [4]): time- and dose-dependent inhibition of growth

CC12CCC3C(CC=C4CC(OS(=O)(=O)[O-])CCC43C)C1CCC2=O.[Na+] (stereo not drawn) [DHEA-S Dihydrate]
Particle size (D50%) ([5]; Bulk): 31 microns | Water (% w/w) ([5]; Bulk): 8.5 % w/w | Particle size (D50%) ([5]; Micronized): 3.7 microns | Water (% w/w) ([5]; Micronized): 8.4 % w/w | Surface area (m^2/g) ([5]; Micronized, five point BET): 4.9 m^2/g | Colour after storage ([6]; 1 week at 50° C.): no change in color | DHEA % formed ([6]; 50° C., 1 week): 0.216% | DHEA % formed ([6]; 50° C., 3 weeks): 0.317% | DHEA % formed ([6]; 50° C., 4 weeks): 0.374% | DHEA % formed ([6]; Control, initial (Time=0)): 0.213% | DHEA % formed ([6]; Control, sealed, 25° C., 4 weeks): 0.218% | Water content, starting value ([6]; before storage): 8.8% | Water content after accelerated storage ([6]; one week at 50° C.): 8.66% | Fine particle fraction compared with virtually anhydrous material [7]: higher fine particle fraction

C[C@]12CC[C@H](OS(=O)(=O)[O-])CC1=CC[C@@H]1[C@@H]2CC[C@]2(C)C(=O)CC[C@@H]12.[Na+] [DHEA-S, sodium dehydroepiandrostenone sulfate]
Solubility (Solubility of DHEA-S; 0.9% NaCl, refrigerated (7-8° C.)): 1100 to 1300 µg/mL | Ksp (Solubility of DHEA-S; 15° C., interpolated): ~1316 mM^2 | Solubility in hexane (Solubility of DHEA-S; hexane): insoluble | Equilibrium constant Ksp (Solubility of DHEA-S; refrigerated (7-8° C.)): 665 mM^2 | Equilibrium constant Ksp (Solubility of DHEA-S; room temperature (24-25° C.)): 2236 mM^2 | Solubility (Solubility of DHEA-S; ~25° C., 0% NaCl): 16500 to 17400 µg/mL | Stability of nebulizer formulation ([8]; 7.5 mg/mL in 0.12% NaCl, RT): stable for at least one day | Appearance of solution on storage ([8]; 40° C.): became cloudy after two days of storage | Appearance of solution on storage ([8]; RT (24-26° C.)): slight precipitate is observed on the third day | Degradation of the drug during jet milling micronization [9]: no detectable degradation

C[C@@](O)(CCO)CC(=O)O [MVA, mevalonic acid]
Prevention of DHEA-induced S phase depletion (HT-29 SF cells [1]): partially prevented | Reversal of DHEA-induced growth inhibition (HT-29 SF cells [2]): partially overcome

C[C@]12CCC(=O)C=C1CC[C@@H]1[C@@H]2CC[C@@]2(C)[C@H]1CC[C@]2(C)O [Methyltestosterone, methyltestosterone]
Intracellular adenosine, Liver (adenosine; Methyltestosterone 40 mg/kg, mean±SEM): 16.5 ± 0.9 nmols/mg protein | Intracellular adenosine, Liver (adenosine; Methyltestosterone 120 mg/kg, mean±SEM): 5.1 ± 0.5 nmols/mg protein

O=C(Nc1c(Cl)cncc1Cl)c1ccc(OC(F)F)c(OCC2CC2)c1 [Roflumilast]
Reduction of number of exacerbations compared to placebo (asthma; higher dose): 48% | Reduction of number of exacerbations compared to placebo (asthma; lower dose): 8%

CC(C)=CCC/C(C)=C/CC/C(C)=C/CC/C=C(\C)CC/C=C(\C)CCC=C(C)C [SQ, squalene]
Reversal of DHEA-induced growth inhibition (HT-29 SF cells [2]): no such effect

Reference: patent publication US20090274676A1, “COMBINATION OF DEHYDROEPIANDROSTERONE OR DEHYDROEPIANDROSTERONE-SULFATE WITH A PDE-4 INHIBITOR FOR TREATMENT OF ASTHMA OR CHRONIC OBSTRUCTIVE PULMONARY DISEASE” (priority 2003, published 2009)
